Assay results published in patent US8815270B2, “Methods and compositions for treating ectoparasite infestation” (Piedmont Pharmaceuticals, LLC, priority 2002, dated 2014).

System: adult body louse, Pediculous humanus humanus
Protocol: In this embodiment, the effectiveness of pediculicidal materials in the formulation of Example 1 is examined against the adult body louse, Pediculous humanus humanus. But this procedure can be used to test the effectiveness of a composition against the head louse, fleas, ticks, or any ectoparasite. In the following description, “morbid” means that the louse is unable to move towards heat 1 h after treatment. The parasite is sick but not necessarily dying, and may recover to resume normal behavior within 24 hours. By “moribund” is meant the parasite is unable to move towards heat (and therefore food) 24 hours after treatment and is dying.
Four replicates of 25 lice each, plus five control replicates were examined. A plastic or glass vial, screened at the bottom with 20-mesh was used as the dipping vessel. A plunger, made from a plastic rod, and a circular screen was fitted inside the vial.
25 adult lice of mixed sexes were placed in the bottom of a test container. A screened plunger was inserted to keep the lice from floating to the surface. The pediculicide material to be tested was placed in a 100-ml beaker and the beaker introduced into a waterbath maintained at 32° C. The test container was placed into the pediculicide in the 100-ml beaker and the lice kept under the pediculicide for 1, 4 or 10 minutes. The test container was removed at end of the desired dipping period. […]

CCCCCCCCCCCCCC(=O)OC(C)C [isopropyl myristate, 1-methylethyltetradecanoate]
lice killed (mortality) after 1 hour: about 82% | mortality of lice after 24 hours: 100%
